Reference: patent US4962113A, “Pyridinium derivatives, their production and use” (Takeda Chemical Industries, Ltd, priority 1987, dated 1990)
Read-outs that look alike come from different tables or passages of the source.

Legend:
[1] = test system: platelet aggregation (PAF); assay: Inhibitory action on PAF-induced rabbit platelet aggregation; format: cell-based; conditions: Oryctolagus cuniculus, read-out: inhibitory percentage (platelet aggregation); for inhibition at 3 µM: 3 × 10^-6 M; for inhibition at 0.3 µM: 3 × 10^-7 M; for inhibition at 0.03 µM: 3 × 10^-8 M
Experimental: Blood was collected directly from the hearts of male rabbits using a syringe containing, as an anticoagulant, 3.15% citric acid (one part to 9 parts of blood). The blood was subjected to centrifuge at 800 rpm for ten minutes at room temperature to obtain platelet rich plasma (PRP). The remaining blood was further subjected to centrifuge at 3000 rpm for ten minnutes to separate platelet poor plasma (PPP) as the supernatant. PRP was diluted with PPP, and the number of platelets was adjusted to about 500,000/ μl. This PRP(250 μl) was stirred for two minutes at 37° C., and there was added a test sample, and the mixture was stirred for further two minutes, followed by addition of PAF of a given concentration. Platelet aggregation was examined by means of a platelet-agglutometer (manufactured by Rika Denki). Platelet aggregation preventing action of the test sample was determined based on the maximum percent light transmission (maximum percent. agglutination).

PAF-induced hypotension = assay: Inhibitory action on PAF-induced hypotension in rats; format: in vivo, rat (Sprague-Dawley); conditions: Rattus norvegicus, read-out: Inhibitory Rate (Lowering of Blood Pressure); for inhibition in vivo at 1 mg/kg / inhibition in vivo at 3 mg/kg / inhibition in vivo at 10 mg/kg: oral; for inhibition in vivo at 0.03 mg/kg / inhibition in vivo at 0.01 mg/kg / inhibition in vivo at 0.1 mg/kg: iv
Experimental: Sprague-Dawley male rats, each weighing about 250 g, were subjected to the experiment. The rats were cannulated on the side of femoral artery for measuring the blood pressure, and on the side of femoral vein for administering the drug. The blood pressure was measured through a pressure transducer and recorded. First, PAF (1 μg/kg) was administered intravenously (i.v.) to examine the extent of lowering of blood pressure. Then, the test samples were administered intravenously or orally. […]
The inhibitory action on PAF-induced hypotension (% inhibition) is indicated as the ratio of blood pressure-lowering degree (Δ mmHg) induced by PAF after administration of test samples relative to blood pressure-lowering degree (Δ mmHg) induced by PAF before administration of test samples.

Row | Structure (SMILES) | inhibition at 3 µM [1] [%] | inhibition at 0.3 µM [1] [%] | inhibition at 0.03 µM [1] [%] | inhibition in vivo at 1 mg/kg (PAF-induced hypotension; 1 hr.) [%] | inhibition in vivo at 1 mg/kg (PAF-induced hypotension; 2 hr.) [%] | inhibition in vivo at 1 mg/kg (PAF-induced hypotension; 4 hr.) [%] | inhibition in vivo at 1 mg/kg (PAF-induced hypotension; 6 hr.) [%] | inhibition in vivo at 1 mg/kg (PAF-induced hypotension; 8 hr.) [%] | inhibition in vivo at 3 mg/kg (PAF-induced hypotension; 1 hr.) [%] | inhibition in vivo at 3 mg/kg (PAF-induced hypotension; 2 hr.) [%] | inhibition in vivo at 3 mg/kg (PAF-induced hypotension; 4 hr.) [%] | inhibition in vivo at 3 mg/kg (PAF-induced hypotension; 6 hr.) [%] | inhibition in vivo at 3 mg/kg (PAF-induced hypotension; 8 hr.) [%] | inhibition in vivo at 0.03 mg/kg (PAF-induced hypotension; 1 hr.) [%] | inhibition in vivo at 0.03 mg/kg (PAF-induced hypotension; 2 hr.) [%] | inhibition in vivo at 0.03 mg/kg (PAF-induced hypotension; 4 hr.) [%] | inhibition in vivo at 0.03 mg/kg (PAF-induced hypotension; 6 hr.) [%] | inhibition in vivo at 0.03 mg/kg (PAF-induced hypotension; 8 hr.) [%] | inhibition in vivo at 0.03 mg/kg (PAF-induced hypotension; 5 min, i.v., 5 min.) [%] | other results
1 | CCC[n+]1cc(Br)cc(C(=O)N(CCOC(=O)NCCCOC(=O)Nc2cccc3ccccc23)c2ccccc2)c1 [Production Example 52, 5-bromo-3-[N-2-[3-(1-naphthylcarbamoyloxy)propyl]carbamoyloxy]ethyl-N-phenyl]carbamoyl-1-propyl pyridinium chloride] | 100 | 100 | 27 | 30 | 47 | 37 | 51 | 31 | 87 | 92 | 89 | 88 | 81 | – | – | – | – | – | – | inhibition in vivo at 10 mg/kg (PAF-induced hypotension; 1 hr.): 92%; inhibition in vivo at 10 mg/kg (PAF-induced hypotension; 2 hr.): 95%; inhibition in vivo at 10 mg/kg (PAF-induced hypotension; 4 hr.): 98%; inhibition in vivo at 10 mg/kg (PAF-induced hypotension; 6 hr.): 96%; inhibition in vivo at 10 mg/kg (PAF-induced hypotension; 8 hr.): 95%
2 | CCC[n+]1cc(Br)cc(C(=O)N(CCOC(=O)NCCOC(=O)N2CCc3ccccc3C2)c2ccccc2)c1 [Production Example 77, 5-Bromo-3-[N-[2-[[2-(1,2,3,4-tetrahydroisoquinolyl)carbonyloxy]ethyl]carbamoyloxy]ethyl-N-phenyl]carbamoyl-1-propylpyridinium chloride] | 100 | 100 | 51 | 56 | 64 | 72 | 66 | 59 | 89 | 100 | 99 | 99 | 97 | 100 | 97 | 62 | 46 | 33 | 100 | –
3 | CCC[n+]1cc(Cl)cc(C(=O)N(CCC(=O)NCCOC(=O)N2CCc3ccccc3C2)c2ccccc2)c1 [Production Example 88, 5-Chloro-3-[N-[2-[[2-(1,2,3,4-tetrahydroisoquinolyl)carbonyloxy]ethyl]carbamoyl]ethyl-N-phenyl]carbamoyl-1-propylpyridinium chloride] | 100 | 100 | 33 | 70 | 75 | 73 | 61 | 58 | 93 | 95 | 98 | 83 | 85 | – | – | – | – | – | – | inhibition in vivo at 0.01 mg/kg (PAF-induced hypotension; 1 hr.): 59%; inhibition in vivo at 0.01 mg/kg (PAF-induced hypotension; 2 hr.): 55%; inhibition in vivo at 0.01 mg/kg (PAF-induced hypotension; 4 hr.): 40%; inhibition in vivo at 0.01 mg/kg (PAF-induced hypotension; 6 hr.): 25%; inhibition in vivo at 0.01 mg/kg (PAF-induced hypotension; 8 hr.): 19%; inhibition in vivo at 0.01 mg/kg (PAF-induced hypotension; 5 min, i.v., 5 min.): 95%
4 | CCC[n+]1cc(Br)cc(C(=O)N(CCOC(=O)NCCOC(=O)Nc2cccc3ccccc23)c2cccc(OC)c2)c1 [Production Example 94, 5-Bromo-3-[N-(3-methoxyphenyl)-N-[2-[2-(1-naphthylcarbamoyloxy)ethyl]carbamoyloxy]ethyl]carbamoyl-1-propylpyridinium chloride] | 100 | 99 | 10 | 27 | 34 | 50 | 50 | 40 | 67 | 89 | 93 | 97 | 90 | 94 | 86 | 70 | 63 | 52 | 100 | –
5 | CCC[n+]1cc(Br)cc(C(=O)N(CCC(=O)NCCNS(=O)(=O)c2ccc3ccccc3c2)c2ccccc2)c1 [Production Example 98, 5-Bromo-3-[N-[2-[2-(2-naphthylsulfonamidoethyl]carbamoyl]ethyl-N-phenyl]carbamoyl-1-propylpyridinium chloride] | 100 | 100 | 16 | 70 | 74 | 74 | 70 | 69 | 87 | 91 | 93 | 93 | 89 | – | – | – | – | – | – | –
6 | CCC[n+]1cc(Br)cc(C(=O)N(CCC(=O)NCCNC(=O)c2cccc3ccccc23)c2ccccc2)c1 [Production Example 108, 5-Bromo-3-[N-[2-[2-(1-naphthoylamino)ethyl]carbamoyl]ethyl-N-phenyl]carbamoyl-1-propylpyridinium chloride] | 100 | 37 | 5 | 64 | 61 | 55 | 51 | 42 | 92 | 86 | 94 | 94 | 72 | – | – | – | – | – | – | inhibition in vivo at 0.1 mg/kg (PAF-induced hypotension; 1 hr.): 100%; inhibition in vivo at 0.1 mg/kg (PAF-induced hypotension; 2 hr.): 97%; inhibition in vivo at 0.1 mg/kg (PAF-induced hypotension; 4 hr.): 75%; inhibition in vivo at 0.1 mg/kg (PAF-induced hypotension; 6 hr.): 58%; inhibition in vivo at 0.1 mg/kg (PAF-induced hypotension; 8 hr.): 45%; inhibition in vivo at 0.1 mg/kg (PAF-induced hypotension; 5 min, i.v., 5 min.): 100%
